Results published in PubChem BioAssay AID977628 (Broad Institute, 2014).
Records with an inconclusive call do not appear. Active and inactive are the calls of the source.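 The calls were made as follows: active = compound lowering the normal-ribosome reporter at least twice as much as the humanized-ribosome reporter, growth loss under a set limit; inconclusive = no clear call, values can overlap the other calls; inactive = the rest.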

Legend:
Experiment in all cases: growth of wild-type and h24-humanized E. coli strains – h24 mutant RFP vs wild-type GFP, cherry-pick, dose response (AID 977628)
[1] = test system: E. coli mixed WT/h24 culture total growth, OD600, 24 h
[2] = test system: E. coli h24 humanized mutant RFP strain growth, fluorescence, 24 h
[3] = test system: E. coli WT GFP strain growth, fluorescence, 24 h

SMILES | AC50 [1] [µM] | AC50 [2] [µM] | AC50 [3]
Cc1cccc(S(=O)(=O)Nc2ccc(-c3cn4ccccc4n3)cc2)c1 | 29.7 | > 100 | > 100 µM (inactive)
COc1ccc(NC(=O)c2cccnc2SC)cc1S(=O)(=O)N1CCCCC1 | > 100 | > 100 | > 100 µM (inactive)
COc1ccccc1-c1nnc(C2CCN(S(=O)(=O)c3cccc([N+](=O)[O-])c3)CC2)o1 | > 100 | > 100 | > 100 µM (inactive)
COc1ccccc1CNC(=O)CN1C(=O)NC(c2ccccc2)(c2ccccc2)C1=O | > 100 | > 100 | > 100 µM (inactive)
CC(C)CNC(=O)c1cccc(NC(=O)C(C)Oc2ccccc2)c1 (centres undefined) | > 100 | > 100 | 
CCCCNC(=O)C[C@@H]1C[C@@]2(C(=O)OC)CCCCC=C2N(Cc2ccccc2)C1=O | > 100 | > 100 | > 100 µM (inactive)
NS(=O)(=O)c1cccc(NC(=O)c2cccc(-c3ccc(O)cc3)c2)c1 | 50.8 | > 100 | > 100 µM (inactive)
CCN(C(=O)CSc1cc(C)c2ccc(OC)cc2n1)C1CCS(=O)(=O)C1 (centres undefined) | > 100 | > 100 | 
CCn1cc(Br)c(C(=O)Nc2ccc(C(=O)OC(C)C)cc2)n1 | 19.9 | 2.96 | > 100 µM (inactive)
Cc1oc(-c2ccc(-c3ccccc3)cc2)nc1CN(C)C1CCOC1 (centres undefined) | 49.9 | > 100 | > 100 µM (inactive)
c1ccc(-c2nc(-c3cccnc3)cs2)cc1 | > 100 | > 100 | > 100 µM (inactive)
CCCN(Cc1ccco1)S(=O)(=O)c1ccc(OC)c(OC)c1 | > 100 | > 100 | 
O=C(COC(=O)C1CC2C=CC1C2)Nc1ccc([N+](=O)[O-])cc1 (centres undefined) | > 100 | > 100 | 
O=C1c2cccc(OCC(=O)N3CCCc4ccccc43)c2CCN1Cc1cccnc1 | 45.8 | 9.06 | > 100 µM (inactive)
O=C(O)CCSc1nc2ccccc2n1-c1ccccc1 | 36.4 | 29.2 | > 100 µM (inactive)
O=C(O)c1cc(S(=O)(=O)N2CCN(C(c3ccccc3)c3ccccc3)CC2)ccc1Cl | > 100 | > 100 | > 100 µM (inactive)
CCCCCc1nnc(NC(=O)C2COc3ccccc3O2)s1 (centres undefined) | > 100 | > 100 | 
COCc1ccc(C(=O)N2CCCC(C(=O)c3ccc(Cl)cc3C)C2)o1 (centres undefined) | > 100 | > 100 | 
Nc1[nH]c(C(=O)c2ccccc2)c(-c2ccc3c(c2)OCO3)c1C(=O)NCCc1c[nH]c2ccccc12 | > 100 | > 100 | > 100 µM (inactive)

SMILES | AC50 [1] [µM] | AC50 [2] [µM] | AC50 [3]
CCc1ccn2cc(-c3ccc4c(c3)OCO4)nc2c1 | > 100 | > 100 | > 100 µM (inactive)
CCOc1ccc(NC(=O)CN(C)CC(=O)Nc2ccc(Br)cc2F)cc1OCC | > 100 | > 100 | > 100 µM (inactive)
COC(=O)c1ccsc1NC(=O)c1cccc(OC)c1 | > 100 | > 100 | 
COc1cc(NC(=O)COC(=O)CC(C)(C)C)c(C)cc1[N+](=O)[O-] | > 100 | > 100 | > 100 µM (inactive)
O=S1(=O)c2ccc(Br)cc2OCCC2CCCCN21 (centres undefined) | > 100 | > 100 | > 100 µM (inactive)
CCc1cc(C(=O)c2ccc(OC)cc2)c(NC(=O)CCC(=O)O)s1 | 50.9 | 49 | > 100 µM (inactive)
C=CCNc1ccc2c(c1)OC[C@H](CC(C)C)NS2(=O)=O | > 100 | > 100 | > 100 µM (inactive)
Cc1nc(C)c(-c2ccn(S(=O)(=O)c3ccc(Cl)cc3)n2)o1 | 45.5 | > 100 | > 100 µM (inactive)
COc1ccccc1C(=O)Nc1cccc2cccnc12 | > 100 | 10.2 | > 100 µM (inactive)
CCc1cc2cc(OC)ccc2nc1SCC(=O)Nc1cc(OC)c(OC)cc1C(=O)O | > 100 | > 100 | 
CCc1cccc(NC(=O)CCC(=O)N2CCSc3ccccc32)c1 | 41.7 | > 100 | > 100 µM (inactive)
CSc1nnnn1-c1ccc(Cl)cc1 | > 100 | > 100 | 
Cc1ccccc1-c1nc(CS(=O)(=O)CC(=O)N2CCCCC2)c(C)o1 | > 100 | > 100 | 
COc1ccc2cc(CO)c3cc(OC)c(OC)cc3c2c1 | > 100 | > 100 | > 100 µM (inactive)
Cc1nnc2sc(SCC(=O)Nc3ccc(Br)cc3)nn2c1=O | > 100 | > 100 | > 100 µM (inactive)
Nc1ccccc1Sc1ccc(C(F)(F)F)cc1[N+](=O)[O-] | 52.3 | > 100 | > 100 µM (inactive)
Cc1ccc(C(=O)Nc2cccc3[nH]c(C(F)(F)F)nc23)cc1 | > 100 | > 100 | > 100 µM (inactive)
Cc1cc(C)n2nc(C(=O)Nc3cccc(S(=O)(=O)N(C)c4ccccc4)c3)nc2n1 | > 100 | > 100 | > 100 µM (inactive)
CNC(=O)c1ccsc1NC(=O)c1ccc2c(c1)CCCC2 | > 100 | 6.81 | > 100 µM (inactive)
